Results as given in patent US9574188B2, “DNA restriction library tagging and analysis” (Harborgen Biotech LLC, priority 2014, dated 2017).

Tested on: RKO cell line
Experiment: Effect of methylation inhibitor on global methylation percentage (restriction library qPCR)
Assay type: cell-based
Procedure: The following steps are performed to create (including amplify) the restriction library, and measure methylation level: • 1. Add equal amount of a genomic DNA into two tubes containing the Msp I restriction library making system or Hpa II restriction library making system. • 2. Incubate the two tubes in PCR instrument. Repeat the following thermal cycle 100 times: 22 degree Celsius for 2 minutes, 16 degree 2 minutes, and 4 degree 2 minutes.
• Hpa II, Msp I and Cla I have more than 75% activity left at 22 degree. The generated restriction fragments and adaptors have the compatible CG-5′ overhang that contain phosphate at 5′ ends. At 4 degree Celsius, the compatible overhangs anneal together then T4 DNA ligases join the two annealed ends. • 3. […] Consequently the hetero-ligation is no longer recognizable by Cla I, Msp I or Hpa II. • 4. […] The proportion of hetero-ligation products becomes higher and higher, while the proportion of self-ligation products becomes lower and lower accompanied with repeating the cycle digestion-ligation reaction. • 6. All restriction sites in the Msp I restriction library making system disappear after hetero-ligation between restriction fragments and the adapters at reaction end, but not the methylated restriction sites (CCGG) in Hpa II restriction library making system. • 7. […]

Nc1ncn([C@H]2C[C@H](O)[C@@H](CO)O2)c(=O)n1 [DAC, 5-aza-2′ deoxycytidine]
methylation percentage of RKO cells after methylation inhibitor treatment (5 μM for 3 days prior to harvest, decreased from 96.7% (before treatment)): 35.6% | effect on the methylation level of RKO cell line (FIG. 9 legend): significantly affected
